# Data: patent US7049444B2, “3-azabicyclo[3.1.0]hexane derivatives useful in therapy” (Pfizer Inc., priority 1998, dated 2006)
# Where a name gives a salt, the structure may show the parent alone.
row,SMILES,melting point
1,CC1(c2cccc(NS(C)(=O)=O)c2)C2CN(CCc3ccc(C(F)(F)F)cc3)CC21 (stereo not drawn),159 to 161 °C
2,CC1(c2cccc(NS(C)(=O)=O)c2)C2CN(CCCc3ccccc3)CC21 (stereo not drawn) (as salt: benzenesulfonate),166 to 168 °C
3,CC1(c2cccc(NS(C)(=O)=O)c2)C2CN(CCCc3ccccc3)CC21 (stereo not drawn) (as salt: hydrochloride),212 to 214 °C
4,CC1(c2cccc(NS(C)(=O)=O)c2)C2CN(CCCc3ccccc3)CC21 (stereo not drawn) (as salt: tartrate),162 to 164 °C
5,CC1(c2cccc(NS(C)(=O)=O)c2)C2CN(CCCc3ccccc3)CC21 (stereo not drawn) (as salt: toluenesulfonate),182 to 184 °C
6,"CC1(c2cccc(NS(C)(=O)=O)c2)C2CN(Cc3ccccc3)CC21 (stereo not drawn) [Example 22, N-[3-(3-Benzyl-6-methyl-3-azabicyclo[3.1.0]hex-6-yl)phenyl]methanesulfonamide]",117 to 118 °C
